In patent publication US9040534B2, “[1,2,4]triazolo[4,3-a]pyrazines as P2X7 modulators” (Janssen Pharmaceutica NV, priority 2013, dated 2015) one finds IC50 and Ki data, which are given here for 15 compounds.

Some results are limits rather than exact numbers.

As a reminder, the IC50 is the concentration needed to halve the response being measured. A word on the Ki: it is the dissociation constant of the complex between target and ligand, obtained from inhibition or displacement. A high value points to a looser hold on the target.

Assay [1] addresses T1, rat P2X7 (Rattus norvegicus (Rat), UniProt Q64663). Nature of the assay: Ca2+ flux (FLIPR) in 1321N1 cells expressing recombinant rat P2X7 channel. The class given is cell-based. Particulars: 250 μM BzATP. Here is the method:
(§1) (A) Ca^2+ Flux: 1321N1 cells expressing the recombinant human, rat or mouse P2X7 channel was cultured in HyQ DME/(HyClone/Dulbecco's Modified Eagle Medium) high glucose supplemented with 10% Fetal Bovine Serum (FBS) and appropriate selection marker. Cells were seeded at a density of 25000 cells/well (96-well clear bottom black walled plates) in 100 μl volume/well. On the day of the experiment, cell plates were washed with assay buffer, containing (in mM): 130 NaCl, 2 KCl, 1 CaCl2, 1 MgCl2, 10 HEPES, 5 glucose; pH 7.40 and 300 mOs. After the wash, cells were loaded with the Calcium-4 dye (Molecular Device) and incubated in the dark for 60 minutes. Test compounds were prepared at 250× the test concentration in neat DMSO. Intermediate 96-well compound plates were prepared by transferring 1.2 μL of the compound into 300 μL of assay buffer. A further 3× dilution occurred when transferring 50 μL/well of the compound plate to 100 μL/well in the cell plate. Cells were incubated with test compounds and dye for 30 minutes. […] The fluorescence change was measured 180 seconds after adding the agonist.

Assay [2] has as its target T1, rat P2X7. Nature of the assay: Radioligand binding, rat P2X7-1321N1 cell membranes, tritiated A-804598 tracer. Particulars: 1 hour at 4° C. How it is done: (B) Radioligand binding: human or rat P2X7-1321N1 cells were collected and frozen @ −80° C. On the day of the experiment, cell membrane preparations were made according to standard published methods. The total assay volume was 100 μl:10 μl compound (10×)+(b) 40 μl tracer (2.5×)+50 μl membrane (2×). The tracer used for the assay was tritiated A-804598. The compound can be prepared as described in the literature. (Donnelly-Roberts, D. Neuropharmacology 2009, 56 (1), 223-229.) Compounds, tracer and membranes were incubated for 1 hour @ 4° C. The assay was terminated by filtration (GF/B filters pre-soaked with 0.3% PEI) and washed with washing buffer (Tris-HCl 50 mM). The IC50 generated in the binding assay was corrected for tracer concentration and affinity of the tracer to derive at the affinity (Ki) of the test compounds.

The target in assay [3] is T2, P2X7 (Homo sapiens (Human), UniProt Q99572). Description: Ca2+ flux (FLIPR) in 1321N1 cells expressing recombinant human P2X7 channel. It is filed as cell-based. Particulars: 250 μM BzATP. How it is done: as §1
T2 sequence (Q99572 whole entry): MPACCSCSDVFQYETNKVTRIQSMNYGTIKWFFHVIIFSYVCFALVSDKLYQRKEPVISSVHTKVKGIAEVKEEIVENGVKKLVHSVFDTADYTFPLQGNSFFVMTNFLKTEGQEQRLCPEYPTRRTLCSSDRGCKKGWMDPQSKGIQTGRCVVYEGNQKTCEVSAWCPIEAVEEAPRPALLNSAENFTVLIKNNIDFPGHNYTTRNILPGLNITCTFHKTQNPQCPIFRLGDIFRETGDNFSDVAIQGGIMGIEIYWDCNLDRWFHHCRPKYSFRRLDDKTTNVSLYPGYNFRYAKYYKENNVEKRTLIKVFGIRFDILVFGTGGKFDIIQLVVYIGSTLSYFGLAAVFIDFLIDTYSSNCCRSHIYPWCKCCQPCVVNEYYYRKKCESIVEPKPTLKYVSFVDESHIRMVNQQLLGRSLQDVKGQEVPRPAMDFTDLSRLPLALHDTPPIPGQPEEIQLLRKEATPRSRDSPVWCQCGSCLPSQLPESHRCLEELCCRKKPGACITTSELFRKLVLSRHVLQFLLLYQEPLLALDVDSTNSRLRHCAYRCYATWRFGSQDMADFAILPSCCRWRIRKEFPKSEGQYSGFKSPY
Background: A change in cytosolic calcium serves as a functional read-out for many receptors and channels.

The target in assay [4] is T2, P2X7. Nature of the assay: Radioligand binding, human P2X7-1321N1 cell membranes, tritiated A-804598 tracer. The note with it: 1 hour at 4° C. Here is the method: (B) Radioligand binding: human or rat P2X7-1321N1 cells were collected and frozen @ −80° C. On the day of the experiment, cell membrane preparations were made according to standard published methods. […] The compound can be prepared as described in the literature. […] The assay was terminated by filtration (GF/B filters pre-soaked with 0.3% PEI) and washed with washing buffer (Tris-HCl 50 mM). The IC50 generated in the binding assay was corrected for tracer concentration and affinity of the tracer to derive at the affinity (Ki) of the test compounds.

T1 sequence (Q64663 whole entry): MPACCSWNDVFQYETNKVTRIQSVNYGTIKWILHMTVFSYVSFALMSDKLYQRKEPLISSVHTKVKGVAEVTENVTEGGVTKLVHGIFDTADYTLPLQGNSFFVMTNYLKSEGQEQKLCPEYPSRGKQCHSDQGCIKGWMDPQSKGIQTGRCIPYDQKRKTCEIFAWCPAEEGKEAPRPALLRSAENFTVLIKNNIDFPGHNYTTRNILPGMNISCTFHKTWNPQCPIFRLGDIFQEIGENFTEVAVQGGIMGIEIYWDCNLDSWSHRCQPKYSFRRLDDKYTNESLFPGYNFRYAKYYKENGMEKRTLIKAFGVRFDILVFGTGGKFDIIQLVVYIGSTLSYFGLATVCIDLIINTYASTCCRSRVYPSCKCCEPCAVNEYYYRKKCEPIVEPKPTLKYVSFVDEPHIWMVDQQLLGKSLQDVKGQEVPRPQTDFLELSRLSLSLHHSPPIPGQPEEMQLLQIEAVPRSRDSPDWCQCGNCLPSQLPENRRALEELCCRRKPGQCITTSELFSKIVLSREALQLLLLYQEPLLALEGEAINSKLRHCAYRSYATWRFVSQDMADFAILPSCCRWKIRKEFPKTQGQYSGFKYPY

In the case of `C[C@H]1Cn2c(nnc2-c2ccccn2)C(=O)N1Cc1cccc(C(F)(F)F)c1Cl` [Example 18, (6S)-7-[2-Chloro-3-(trifluoromethyl)benzyl]-6-methyl-3-pyridin-2-yl-6,7-dihydro[1,2,4]triazolo[4,3-a]pyrazin-8(5H)-one], the half-maximal inhibitory concentration (IC50) at rat P2X7 [1] is 316 nM; on P2X7 [3] it was less than 1 nM. The values for the Ki at rat P2X7 [2] and at P2X7 [4] were 2 nM and 5 nM, respectively.

As for `C[C@H]1Cn2c(nnc2-c2ncco2)C(=O)N1Cc1cccc(C(F)(F)F)c1Cl` [Example 20, (6S)-7-[2-Chloro-3-(trifluoromethyl)benzyl]-6-methyl-3-(1,3-oxazol-2-yl)-6,7-dihydro[1,2,4]triazolo[4,3-a]pyrazin-8(5H)-one], the IC50 at rat P2X7 [1] came to 2000 nM; on P2X7 [3], 3.2 nM. Also, the inhibition constant Ki turned out to be 5 nM at rat P2X7 [2] and 4 nM at P2X7 [4].

On to `C[C@H]1Cn2c(nnc2-c2ccn(C)n2)C(=O)N1Cc1cccc(C(F)(F)F)c1Cl` [Example 23, (6S)-7-[2-Chloro-3-(trifluoromethyl)benzyl]-6-methyl-3-(1-methyl-1H-pyrazol-3-yl)-6,7-dihydro[1,2,4]triazolo[4,3-a]pyrazin-8(5H)-one], for which the results for the concentration for half-maximal inhibition (IC50) at rat P2X7 [1] and on P2X7 [3] were 1220 nM and 2.5 nM, respectively. For the same compound, the inhibition constant Ki on rat P2X7 [2] and at P2X7 [4] was 3.2 nM each time.

`Cc1cc(-c2nnc3n2C[C@H](C)N(Cc2cccc(C(F)(F)F)c2Cl)C3=O)n[nH]1` [Example 26, (6S)-7-[2-Chloro-3-(trifluoromethyl)benzyl]-6-methyl-3-(5-methyl-1H-pyrazol-3-yl)-6,7-dihydro[1,2,4]triazolo[4,3-a]pyrazin-8(5H)-one]: the values for the IC50 on rat P2X7 [1] and at P2X7 [3] were 375 nM and 1.2 nM, respectively. The Ki amounted to 1 nM on rat P2X7 [2] and 3.2 nM at P2X7 [4].

Turning to `C[C@H]1Cn2c(nnc2-c2cccnc2)C(=O)N1Cc1cccc(C(F)(F)F)c1Cl` [Example 29, (6S)-7-[2-Chloro-3-(trifluoromethyl)benzyl]-6-methyl-3-pyridin-3-yl-6,7-dihydro[1,2,4]triazolo[4,3-a]pyrazin-8(5H)-one], the IC50 on rat P2X7 [1] came to 122 nM; on P2X7 [3] it was 1 nM. The Ki is 5.6 nM on rat P2X7 [2] and 4 nM on P2X7 [4].

As for `C[C@H]1Cn2c(nnc2-c2ncc(Br)cn2)C(=O)N1Cc1cccc(C(F)(F)F)c1Cl` [Example 42, (6S)-3-(5-Bromopyrimidin-2-yl)-7-[2-chloro-3-(trifluoromethyl)benzyl]-6-methyl-6,7-dihydro[1,2,4]triazolo[4,3-a]pyrazin-8(5H)-one], the values for the IC50 on rat P2X7 [1] and at P2X7 [3] were greater than 10000 nM and 17.5 nM, respectively. Besides, affinity at P2X7 [4] was put at a Ki of 7.9 nM.

With `C[C@H]1Cn2c(nnc2-c2cncc(F)c2)C(=O)N1Cc1cccc(C(F)(F)F)c1Cl` [Example 45, (6S)-7-[2-Chloro-3-(trifluoromethyl)benzyl]-3-(5-fluoropyridin-3-yl)-6-methyl-6,7-dihydro[1,2,4]triazolo[4,3-a]pyrazin-8(5H)-one], the IC50 at rat P2X7 [1] turned out to be 12600 nM; at P2X7 [3], 100 nM. Further, the Ki on rat P2X7 [2] was 5 nM; on P2X7 [4], 6.3 nM.

`Cc1cccc(-c2nnc3n2C[C@H](C)N(Cc2cccc(C(F)(F)F)c2Cl)C3=O)n1` [Example 46, (6S)-7-[2-Chloro-3-(trifluoromethyl)benzyl]-6-methyl-3-(6-methylpyridin-2-yl)-6,7-dihydro[1,2,4]triazolo[4,3-a]pyrazin-8(5H)-one]: the IC50 at rat P2X7 [1] came to 154 nM; on P2X7 [3], 3.3 nM. On P2X7 [4], this compound gave a Ki of 12.6 nM.

`Cc1ncccc1-c1nnc2n1C[C@H](C)N(Cc1cccc(C(F)(F)F)c1Cl)C2=O` [Example 48, (6S)-7-[2-Chloro-3-(trifluoromethyl)benzyl]-6-methyl-3-(2-methylpyridin-3-yl)-6,7-dihydro[1,2,4]triazolo[4,3-a]pyrazin-8(5H)-one]: the IC50 is 543 nM on rat P2X7 [1] and 13.2 nM on P2X7 [3]. Further, on P2X7 [4], affinity was put at a Ki of 12.6 nM.

On to `C[C@H]1Cn2c(nnc2C2CCCNC2)C(=O)N1Cc1cccc(C(F)(F)F)c1Cl` (stereo partly drawn) [Example 60, (6S)-7-[2-Chloro-3-(trifluoromethyl)benzyl]-6-methyl-3-piperidin-3-yl-6,7-dihydro[1,2,4]triazolo[4,3-a]pyrazin-8(5H)-one], for which the IC50 on rat P2X7 [1] and on P2X7 [3] was greater than 10000 nM throughout. Further, at P2X7 [4], the Ki is 631 nM.

Regarding `CC[C@H]1Cn2c(nnc2-c2cnccn2)C(=O)N1Cc1cccc(C(F)(F)F)c1Cl` [Example 71, (6S)-7-[2-Chloro-3-(trifluoromethyl)benzyl]-6-ethyl-3-pyrazin-2-yl-6,7-dihydro[1,2,4]triazolo[4,3-a]pyrazin-8(5H)-one], the IC50 at rat P2X7 [1] was found to be 10.3 nM; at P2X7 [3], 0.3 nM. Further, the Ki at P2X7 [4] is 1.3 nM.

In the case of `CC[C@H]1Cn2c(nnc2-c2cc[nH]n2)C(=O)N1Cc1cccc(C(F)(F)F)c1Cl` [Example 74, (6S)-7-[2-Chloro-3-(trifluoromethyl)benzyl]-6-ethyl-3-(1H-pyrazol-3-yl)-6,7-dihydro[1,2,4]triazolo[4,3-a]pyrazin-8(5H)-one], the half-inhibitory concentration (IC50) at rat P2X7 [1] worked out at 5.1 nM; at P2X7 [3], 1.5 nM. The same compound came in with an inhibition constant Ki at P2X7 [4] of 10 nM.

On to `CC[C@H]1Cn2c(nnc2-c2ccc(F)cn2)C(=O)N1Cc1cccc(C(F)(F)F)c1Cl` [Example 76, (6S)-7-[2-Chloro-3-(trifluoromethyl)benzyl]-6-ethyl-3-(5-fluoropyridin-2-yl)-6,7-dihydro[1,2,4]triazolo[4,3-a]pyrazin-8(5H)-one], for which the values for the half-inhibitory concentration (IC50) at rat P2X7 [1] and on P2X7 [3] were 158 nM and less than 1 nM, respectively. Besides, the Ki amounted to 1.6 nM at rat P2X7 [2] and 2.5 nM at P2X7 [4].

With `Cc1cccc(C)c1CN1C(=O)c2nnc(-c3cnccn3)n2C[C@@H]1C` [Example 87, (6S)-7-(2,6-Dimethylbenzyl)-6-methyl-3-pyrazin-2-yl-6,7-dihydro[1,2,4]triazolo[4,3-a]pyrazin-8(5H)-one], the results for the IC50 at rat P2X7 [1] and on P2X7 [3] were 1560 nM and 42.5 nM, respectively. This compound also came in with a Ki at P2X7 [4] of 31.6 nM.

On to `C[C@H]1Cn2c(nnc2-c2cnccn2)C(=O)N1Cc1cccc(C(F)(F)F)c1` [Example 88, (6S)-6-Methyl-3-pyrazin-2-yl-7-[3-(trifluoromethyl)benzyl]-6,7-dihydro[1,2,4]triazolo[4,3-a]pyrazin-8(5H)-one], for which the IC50 at rat P2X7 [1] was 6040 nM; on P2X7 [3], 4 nM. Besides, on P2X7 [4], the Ki is 5 nM.
